Data published in US9309336B2, “Synthesis and antiscalant behavior of a novel polyzwitterionic acid” (King Fahd University of Petroleum and Minerals, priority 2013, dated 2016).
Where “and” joins values, the source holds several entries; their conditions need not be identical. Equal values may be shown once.

Columns and labels:
[1] = Solubility of monomer 4 (observation at isolation); assay type: physicochemical
Experimental: Synthesis of 3-[Diallyl{3-(diethoxyphosphoryl)propyl}ammonio]propane-1-sulfonate (4) preferably occurs by the following method: under N2 at 70° C., a solution of diethyl 3-(diallylamino)propylphosphonate 2 (15.0 g, 54.5 mmol) and 3 (7.0 g, 57.3 mmol) in CH3CN (30 cm^3) was stirred for 60 h. The residue, after removal of acetonitrile, was crystallized from acetone (30 cm^3) in the presence of small amount of methanol to give white crystals of 4 (19.5 g, 90%). The extremely hygroscopic monomer is insoluble in acetone but soluble in methanol or water. Mp 140-142° C. (closed capillary); (Found: C, 47.9; H, 8.4; N, 3.4; S, 7.8%. C16H32NO6PS requires C, 48.35; H, 8.11; N, 3.52; S, 8.07%); νmax (KBr): 3402, 2985, 2940, 1644, 1479, 1428, 1394, 1213, 1042, 967, 875, 786, 733 and 605 cm^−1; δH (D2O) 1.22 (6H, t, J=7 Hz), 1.86 (2H, m), 1.96 (2H, m), 2.11 (2H, m), 2.84 (2H, t, J=7.5 Hz), 3.23 (2H, apparent t, J=10 Hz), 3.31 (2H, apparent t, J=10 Hz), 3.85 (4H, d, J=7 Hz), 4.04 (4H, m), 5.64 (4H, m), 5.89 (2H, m), (HOD: 4.65); δC (D2O) 15.83 (s, PCH2CH2), 16.47 (d, 2C, Me, ^3J (PC) 4.1 Hz), 18.29 (s, SCH2CH2), 21.45 (d, PCH2, ^1J (PC) 143 Hz), 47.97 (s, SCH2CH2CH2), 57.26 (s, SCH2CH2CH2), 58.32 (d, PCH2CH2CH2, ^3J (PC) 16.4 Hz), 61.72 (2C, ═CH—CH2, s), 64.38 (d, 2C, OCH2CH3, ^2J (PC) 6.2 Hz), 124.40 (2C, s, CH2=CH), 129.80 (2C, s, CH2═CH) (dioxane: 67.40 ppm); δP (202 MHz, D2O): 31.01 (s). DEPT 135 NMR analysis was carried out to assign the ^13C signals.

[2] = Potentiometric titration for protonation (basicity) constants; assay type: physicochemical; details: 23° C.; for Log K1^o (first protonation), Average / Log K2^o (second protonation), Average / n1 (first protonation), Average / n2 (second protonation), Average: average of runs 1-3, SD in last digit in parentheses
Experimental: Protonation constants (K1 and K2) of polymer 8 [ZH2^±=] and its corresponding monomer unit 11 [ZH2^±=] were determined by potentiometric titrations which were carried out in atmosphere of N2 in CO2-free water as described elsewhere using a solution (Tables 3 and 4) of PZDA 6 [ZH2^±] or monomer form 11 [ZH2^±=] in 200 cm^3 of salt-free water or 0.1 N NaCl (S. A. Ali, et al., J. Polym. Sc. A: Polym. Chem. 2010, 48, 5693-5703—incorporated herein by reference in its entirety). The Log K1 and Log K2 of the —P(═O)O^= (in 8 or 11) are calculated at each pH value by the Henderson-Hasselbalch eq 2 (Scheme 1) where a is the ratio [ZH^±−]eq/[Z]o and [ZH2^±]eq/[Z]o, respectively. The [ZH^±−]eq and [ZH2^±]eq represent the respective equilibrium concentrations of the first and second protonated species whereas [Z]o describes the initial concentration of repeating units.
For the determination of the second step protonation constant (log K2) of —P(═O)(OH)O^− (i.e. [ZH^±−]) using the titration of polymer 6 [ZH2^±] with NaOH, [Z]o and [ZH2^±]eq are related by [ZH2^±]eq=[Z]o−COH^−−[H^+]+[OH^−], where COH^− represent the added NaOH concentration. The equilibrium [H^+] and [OH^−] values were calculated from the pH value (W. K. Felty, J. Chem. Educ. 1978, 55, 576; R. Barbucci, et al., Macromolecules 1981, 14, 1203-1209—each incorporated herein by reference in its entirety). The first step protonation constant (log K1) involving the protonation of —P(═O)(O^−)2 (i.e. [Z^±=]) using volume of the titrant after deducting the equivalent volume from the total volume. In this case, α represents the ratio [ZH^±−]eq/[Z]o whereby [ZH^±−]eq equals [Z]o−COH^−−[H^+]+[OH^−]. For the titration of 11 [Z^±=] with HCl, the protonated species' concentration is given by: [ZHi=1,2]eq═CH^+−[H^+]+[OH^−].
Eq. 3 (Scheme 1) describes the apparent basicity constants of —P(═O)(O^−)2 where log K^o=pH at α=0.5 and n=1 in the case of sharp basicity constants.
The ‘n’ and log K^o as the respective slope and intercept were determined from the linear regression fit of pH vs. log [(1−α)/α)]. Protonation at the same time of the three basic sites: —PO3^=(log K1≈+8), —PO3H^− (log K2≈+3) and —SO3^−(log K3≈−2.1) (J. P. Guthrie, Can. J. Chem. 1978, 56, 2342-2354—incorporated herein by reference in its entirety) is not likely due to differences of their basicity constants by about 5 orders of magnitude (vide infra). Note that basicity constant log K of any base B is the pKa of its conjugate acid BH^+.

[3] = 0.1M NaCl, single runs (polymer runs 1, 2 in the presence of 1.5 mL of 0.1222M HCl)

Log K1^o (first protonation), Average ([2]; 0.1M NaCl)	Log K2^o (second protonation), Average ([2]; 0.1M NaCl)	n1 (first protonation), Average ([2]; 0.1M NaCl)	n2 (second protonation), Average ([2]; 0.1M NaCl)	Log K1^o (first protonation) ([2]; 0.1M NaCl, single runs)	n1 (first protonation) ([2]; 0.1M NaCl, single runs)	Log K2^o (second protonation) [2, 3]	n2 (second protonation) [2, 3]	Log K1^o (first protonation), Average ([2]; Salt-Free water)	Log K2^o (second protonation), Average ([2]; Salt-Free water)	n1 (first protonation), Average ([2]; Salt-Free water)	n2 (second protonation), Average ([2]; Salt-Free water)	Log K1^o (first protonation) ([2]; Salt-Free water, single runs)	Log K2^o (second protonation) ([2]; Salt-Free water, single runs)	n1 (first protonation) ([2]; Salt-Free water, single runs)	n2 (second protonation) ([2]; Salt-Free water, single runs)	Structure (SMILES)	solubility ([1]; acetone)	solubility ([1]; methanol)	solubility ([1]; water)
																C=CC[N+](CC=C)(CCCP(=O)(OCC)OCC)CCCS(=O)(=O)[O-] [Monomer 4, 3-[diallyl{3-(diethoxyphosphoryl)propyl}ammonio]propane-1-sulfonate]	insoluble	soluble	soluble
7.12 (1)	2.90 (5)	1.03 (1)	1.01 (4)	7.12 and 7.11 and 7.13	1.03 and 1.04	2.91 and 2.84 and 2.94	0.993 and 1.06 and 0.990	7.53	2.74 (2)	1.04 (1)	1.02 (3)	7.50 and 7.54 and 7.55	2.75 and 2.72	1.04 and 1.05	1.02 and 0.984 and 1.05	C=CC[N+](CC=C)(CCCP(=O)([O-])[O-])CCCS(=O)(=O)[O-].[Na+].[Na+] [Monomer 11]			
